Assays:
PC-3 cells = test: BrdU labeling, DNA synthesis (Cell Proliferation ELISA BrdU); format: cell-based, human; settings: 5 μM compound, 24 hours
Protocol: PC-3 cells were plated in 96-well plates and treated with 5 μM of compound. After 24 hours, the cells were assayed for BrdU labeling using the Cell Proliferation ELISA BrdU kit from Roche; background BrdU incorporation levels (absent anti-BrdU-peroxidase solution) were subtracted and values were normalized to those of control untreated cells.
BrdU Labeling. For the BrdU experiment, PC-3 cells were seeded in 96-well plates at a density of 2×10^3 cells/well, treated with 5 μM of compound for 24 hr and assayed BrdU using the Cell Proliferation ELISA BrdU (chemiluminescence) (Roche Diagnostics, IN) kit according to the manufacturer's protocol. Briefly, 10 μL of 100 μM BrdU labeling solution was added to the cultured cells and were incubated for 1 hr at 37° C., the labeling solution was removed and the FixDenat solution provided with the kit was added for 30 min and incubated at room temperature. Cells were then incubated with anti-BrdU conjugated to peroxidase (1:1500) for 60 min. Finally, the plates were washed and 100 μL of substrate solution was added to each well, and the light emission was measured using a microplate luminometer (Harta Instruments, Inc., Gaithersburg, Md.).
To assess the levels of DNA synthesis within cells treated with mahanine compared to those treated with compounds 6-10, cultured cells were treated according to standard procedure with 5-bromo-2-deoxy-uridine (BrdU) after 24 hours of treatment (FIG. 2).

RASSF1A = test: RT-PCR of RASSF1A mRNA in treated PC-3 cells; format: cell-based, human; settings: 5 μM, 24 hours
Protocol: (§1) Representative photograph of an experiment repeated thrice. PC-3 cells were treated 24 hours with either 15 μM for compounds 6, 7, 7a, 8, 9, 10 or 5 μM for compound KED-4-69 (compound 6a) before RNA extraction and RT-PCR amplification.
(§2) Reverse Transcriptase-polymerase Chain Reaction (RT-PCR). From PC-3 cells incubated 24 hours with either 15 μM of compound 6, 7, 7a, 8, 9, 10 or 5 μM of KED-4-69 (compound 6a), RNA was extracted with TRIzol solution (Invitrogen, Carlsbad, Calif.) and genes of interest were amplified using 500 ng of total RNA reverse-transcribed to cDNA using a Superscript II kit (Invitrogen) with random hexamers. Human-specific primers were designed using the Primer Quest program and purchased from Integrated DNA Technologies, Inc. (Coralville, Iowa). Their sequences and product band sizes are: cyclin D1 forward primer 5′-[…]-3′ (SEQ ID NO:1), cyclin D1 reverse primer 5′-[…]-3′ (SEQ ID NO:2) (475 bp) and GAPDH forward primer: 5′-CCA […]-3′ (SEQ ID NO:3), GAPDH reverse primer: 5′-TCTAGACGGCAG GTCAGGTCCACC-3′ (SEQ ID NO:4) (598 bp). PCRs were initiated at 94° C. for 2 min, followed by 28 cycles of 94° C. for 1 min, 1 min annealing temperature, 72° C. for 1 min, and final extension at 72° C. for 5 min. The annealing temperature for cyclin D1 and GAPDH was 60° C. Primers and PCR conditions for RASSF1A are used as described by Rong et al. (Oncogene. 2004, 23, 8216-8230). After amplification, PCR products were separated on 1.5% agarose gels and visualized by ethidium bromide fluorescence using the Fuji LAS-1000 Imager. Images were captured and imported to Adobe Photoshop. Band intensities were quantified by using ImageJ software (NIH, Bethesda, Md.).
(§3) It has been reported that mRNA levels of RASSF1A correlate to its protein expression levels (Rong et al. Oncogene, 2004, 23: 8216-8230). To investigate the effects of the synthetic compounds on RASSF1A and cyclin D1 expression, levels of the respective mRNAs in treated cells compared to control were analyzed (FIG. 3). […] Because overexpression of cyclin D1 is associated with tumorigenicity and proliferation in a variety of tumors, including prostate cancers, this downregulation provides a cancer treatment method (Chen, Y. et al. Oncogene. 1998, 16, 1913-1920; Musgrove, E. A. et al. Proc. Natl. Acad. Sci. USA. 1994, 91, 8022-8026).

cyclin D1 = test: RT-PCR of cyclin D1 mRNA in treated PC-3 cells; format: cell-based, human; settings: 5 μM, 24 hours
Protocol: as §1, §2, §3

DNMT3b = biological target: T1, DNMT3b (Homo sapiens, UniProt Q9UBC3); test: Multiphoton laser imaging, DNMT3b antibody staining; format: cell-based; settings: PC-3 cells, 5 μM
T1 construct: endogenous in cells; host or cells: PC-3 human prostate cancer cells
Protocol: (A) Fluorescent spectrum of compound 6a; (B) PC-3 cells were treated with a 5 μM solution of compound 6a for 1 hr before being fixed and stained with propidium iodide and DNMT3b antibody; (C) Cells were treated with a 5 μM solution of compound 6a for 6 hr before fixation; (D) Cells were treated with a 5 μM solution of DMSO for 6 hr before fixation. The frames in each set of images are from left to right, top to bottom: propidium iodide; clear field; DNA methyltransferase 3b (DNMT3b); compound 6a or vehicle; and merged. Compound 6a was excited at 725 nm with a multiphoton laser and imaged with a 500-550 nm filter. Arrows indicate representative cells in which DNMT3b is solely in the cytoplasm.
(§4) Multiphoton laser imaging. After incubating slides with a fibronectin/cortactin solution for 30 minutes, PC-3 cells were plated onto the slides and incubated overnight. The cells were then treated with a 5 μM solution of compound 6a or DMSO control and incubated for 1-6 hour before washing with PBS. The slides were fixed with a 4% formaldehyde solution, washed with PBS then treated with propidium iodide (nuclear localization) and DNMT3a or DNMT3b. The compound was excited at 725 nm with a multiphoton laser and imaged with a 500-550 nm filter.
The dansyl moiety present in compound 6a allows it to visibly fluoresce at 552 nm when excited at 370 nm (FIG. 4A). […]

DNMT3a = biological target: T2, DNMT3a (Homo sapiens, UniProt Q9Y6K1); test: Multiphoton laser imaging, DNMT3a antibody staining; format: cell-based; settings: PC-3 cells, 5 μM (data not shown)
T2 construct: treated with propidium iodide (nuclear localization) and DNMT3a or DNMT3b; endogenous in cells; host or cells: PC-3 human prostate cancer cells
T2 sequence (Q9Y6K1 whole entry, looked up): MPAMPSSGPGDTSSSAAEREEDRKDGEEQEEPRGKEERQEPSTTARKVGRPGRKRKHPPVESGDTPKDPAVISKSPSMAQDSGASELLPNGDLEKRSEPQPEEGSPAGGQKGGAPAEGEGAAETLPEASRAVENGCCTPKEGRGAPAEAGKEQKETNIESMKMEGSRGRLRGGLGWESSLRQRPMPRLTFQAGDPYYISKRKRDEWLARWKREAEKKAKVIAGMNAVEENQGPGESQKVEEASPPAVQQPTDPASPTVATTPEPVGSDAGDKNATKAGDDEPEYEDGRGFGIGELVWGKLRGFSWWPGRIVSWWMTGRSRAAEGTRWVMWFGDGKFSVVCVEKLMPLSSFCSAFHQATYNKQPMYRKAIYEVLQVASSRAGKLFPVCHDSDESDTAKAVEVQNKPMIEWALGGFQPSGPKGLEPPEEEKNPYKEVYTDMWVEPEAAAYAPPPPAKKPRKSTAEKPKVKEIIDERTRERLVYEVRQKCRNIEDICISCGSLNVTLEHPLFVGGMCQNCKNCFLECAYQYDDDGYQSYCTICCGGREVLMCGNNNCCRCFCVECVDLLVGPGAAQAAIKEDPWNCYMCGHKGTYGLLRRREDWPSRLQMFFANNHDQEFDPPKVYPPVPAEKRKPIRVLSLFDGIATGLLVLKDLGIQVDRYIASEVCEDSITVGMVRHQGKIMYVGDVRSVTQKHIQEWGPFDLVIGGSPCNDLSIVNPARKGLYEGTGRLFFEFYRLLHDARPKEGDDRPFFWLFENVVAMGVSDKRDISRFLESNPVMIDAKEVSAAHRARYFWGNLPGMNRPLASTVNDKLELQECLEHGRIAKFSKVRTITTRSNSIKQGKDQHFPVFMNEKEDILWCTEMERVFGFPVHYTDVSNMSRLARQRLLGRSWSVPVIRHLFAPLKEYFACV
Protocol: as §4
The dansyl moiety present in compound 6a allows it to visibly fluoresce at 552 nm when excited at 370 nm (FIG. 4A). After treating PC-3 cells with compound 6a, a multiphoton laser was used to excite the compound, and its emission from within the cells was observed by confocal microscopy (FIG. 4B-D). […] To further confirm the hypothesis that compound 6a interaction with DNMT is a crucial factor in the ultimate up-regulation of RASSF1A, the cell samples were stained with antibodies for the DNMT isoforms known to shuttle between the nucleus and the cytoplasm, DNMT3a and DNMT3b (Kim et al., EMBO J, 2002, 21: 4183-4195; Majumber et al., JBC, 2002, 277: 16048-16058). […] Thus, cytoplasmic sequestering of DNMT3b is implied as a mode of action for compound 6a.

For COc1ccc2c(c1)[nH]c1c(C)c(OS(=O)(=O)c3cccc4c(N(C)C)cccc34)ccc12 [Compound 6a, 7-Methoxy-1-methyl-9H-carbazol-2-yl 5-(dimethylamino)naphthalene-1-sulfonate], the “DNA synthetic ability (BrdU labeling)” value (PC-3 cells) was “decrease in DNA synthetic ability”, the “RASSF1A mRNA level versus control” value (RASSF1A) was “significant increase in RASSF1A” and the “cyclin D1 mRNA level versus control” value (cyclin D1) was “corresponding decrease in cyclin D1”. For the same molecule, the DNMT3b localization (DNMT3b; one hour) was “a population of treated cells that have DNMT3b only in the cytoplasm”, the DNMT3b localization (DNMT3b; six hours) was “majority of treated cells having DNMT3b only in the cytoplasm” and the DNMT3a localization (DNMT3a) was “No corresponding effect was seen with DNMT3a”.

— US10457639B2, “Fluorescent regulators of RASSF1A expression and human cancer cell proliferation” (GEORGETOWN UNIVERSITY, priority 2008, dated 2019)
